US9000162B2, “5,8-difluoro-4-(2-(4-(heteroaryloxy)-phenyl)ethylamino)quinazolines and their use as agrochemicals” (Dow AgroSciences LLC, priority 2008, dated 2015)

Columns and labels:
Format in all cases: in vivo
[1] = system: Magnaporthe grisea = Pyricularia oryzae (PYRIOR); test: whole plant or invertebrate; settings: foliar, read-out: Activity against fungal diseases PYRIOR
[2] = system: Septoria tritici (SEPTTR); test: Septoria blotch of wheat foliar protectant test; settings: Zymoseptoria tritici, read-out: Activity against fungal diseases SEPTTR; for pest or weed control at 200 ppm: 200 ppm foliar, inoculated one day after treatment; for pest or weed control at 25 ppm: foliar, Tested at 25 ppm (footnote b)
Method: (§1) The plants were inoculated with the fungus one day after treatment. ***=80-100% control; **=50-79% control; *=0-49% control. It will be understood by those in the art that the efficacy of the compounds against the foregoing fungi establishes the general utility of the compounds as fungicides. The activity of the compounds as effective fungicides was determined by applying the compounds to plants and observing control of fungal disease. […] All plants were inoculated with spores of the fungus the day after treatment, then incubated in an environment conducive to disease development. Disease severity was evaluated 4 to 25 days later, depending on the speed of disease development. The following experiments were performed in the laboratory to determine the fungicidal efficacy of the compounds of the invention. […] Each pot contained 3-10 seedlings. These plants were sprayed until wet with the formulated test compound. On the following day, the leaves were inoculated with an aqueous spore suspension of Septoria tritici and the plants were kept in high humidity (one day in a dark dew chamber followed by three days in a lighted dew chamber) to permit spores to germinate and infect the leaf. The plants were then transferred to a greenhouse until disease developed on untreated control plants. Table 1 presents the activity of typical compounds of the present invention when evaluated in these experiments. The effectiveness of the test compounds at controlling disease when sprayed on leaves was determined by assessing the severity of disease on treated plants, then converting the severity to percent control based on the level of disease on untreated, inoculated plants.

[3] = system: Puccinia recondita tritici (PUCCRT); test: Leaf rust of wheat foliar protectant test; settings: read-out: Activity against fungal diseases PUCCRT; for pest or weed control at 200 ppm: 200 ppm foliar, inoculated one day after treatment; for pest or weed control at 3 ppm: foliar, Tested at 3 ppm (footnote a)
Method: as §1, with “3-8” for “3-10”, “compounds.” for “compound.”, “Puccinia recondita” for “Septoria”, “overnight” for “(one day in a dark dew chamber followed by three days in a lighted dew chamber)”

[4] = system: Pseudoperonospora cubensis (PSPECU); test: Cucumber downy mildew foliar protectant test; settings: 200 ppm foliar, inoculated one day after treatment, read-out: Activity against fungal diseases PSPECU
Method: The plants were inoculated with the fungus one day after treatment. ***=80-100% control; **=50-79% control; *=0-49% control. It will be understood by those in the art that the efficacy of the compounds against the foregoing fungi establishes the general utility of the compounds as fungicides. The activity of the compounds as effective fungicides was determined by applying the compounds to plants and observing control of fungal disease. […] All plants were inoculated with spores of the fungus the day after treatment, then incubated in an environment conducive to disease development. Disease severity was evaluated 4 to 25 days later, depending on the speed of disease development. The following experiments were performed in the laboratory to determine the fungicidal efficacy of the compounds of the invention. Cucumber Downy Mildew (Causal Agent Pseudoperonospora cubensis; Bayer Code […]): Cucumber plants (variety “Bush Champion' or 'Bush Pickle Hybrid') were grown from seed in a soil-less peat-based potting mixture (Metromix) until the first true leaf was 20-80% expanded. Each pot contained 1 seedling. These plants were sprayed until wet with the formulated test compound. On the following day, the leaves were inoculated with an aqueous suspension of downy mildew sporangia and the plants were kept in high humidity for one day to permit sporangia to germinate and infect the leaf. The plants were then incubated in a growth chamber until disease developed on untreated control plants. Table 1 presents the activity of typical compounds of the present invention when evaluated in these experiments. The effectiveness of the test compounds at controlling disease when sprayed on leaves was determined by assessing the severity of disease on treated plants, then converting the severity to percent control based on the level of disease on untreated, inoculated plants.

Compound	pest or weed control at 200 ppm [1]	pest or weed control at 200 ppm [2]	pest or weed control at 200 ppm [3]	pest or weed control at 200 ppm [4]	pest or weed control at 25 ppm [2]	pest or weed control at 3 ppm [3]
COc1ccc(CCNc2ncnc3c(F)ccc(F)c23)cc1Br [Compound 32]	50 to 79%	0 to 49%	80 to 100%	80 to 100%		
Fc1ccc(F)c2c(NCCc3ccc(Oc4ccncc4C(F)(F)F)cc3)ncnc12 [Compound 83]	80 to 100%	80 to 100%	80 to 100%	80 to 100%		
Cc1cc(C(F)(F)F)cc(Oc2ccc(CCNc3ncnc4c(F)ccc(F)c34)cc2)n1 [Compound 7]	80 to 100%	80 to 100%	80 to 100%	80 to 100%		
CCOc1cc(CCNc2ncnc3c(F)ccc(F)c23)ccc1Oc1cc(C(F)(F)F)ccn1 [Compound 60]	80 to 100%	80 to 100%	80 to 100%	80 to 100%		
Fc1ccc(F)c2c(NC3Cc4ccc(Oc5cc(C(F)(F)F)ccn5)cc4C3)ncnc12 (stereo not shown) [Compound 110]	80 to 100%	80 to 100%	80 to 100%	80 to 100%		
Oc1ccc(CCNc2ncnc3c(F)cc(F)c(F)c23)cc1 [Compound 27]	0 to 49%	0 to 49%	0 to 49%	0 to 49%		
Cc1cc(CCNc2ncnc3c(F)cc(F)c(F)c23)ccc1Oc1cc(C(F)(F)F)ccn1 [Compound 80]	80 to 100%	80 to 100%	80 to 100%	80 to 100%		
COc1ccc(CCNc2ncnc3c(F)cc(F)c(F)c23)cc1C [Compound 68]	80 to 100%	0 to 49%	0 to 49%	50 to 79%		
CC(CNc1ncnc2c(F)ccc(F)c12)c1ccc(Oc2cnccc2C(F)(F)F)cc1 (stereo not shown) [Compound 141]					80 to 100%	80 to 100%
CC(Cc1ccc(Oc2cc(C(F)(F)F)ncn2)cc1)Nc1ncnc2c(F)ccc(F)c12 (stereo not shown) [Compound 135]					80 to 100%	80 to 100%
CC(Cc1ccc(Oc2cc(C(F)(F)F)ccn2)cc1)Nc1ncnc2c(F)ccc(F)c12 (stereo not shown) [Compound 134]					80 to 100%	80 to 100%
COc1cc(CCNc2ncnc3c(F)cc(F)c(F)c23)ccc1O [Compound 33]					0 to 49%	0 to 49%
CC(CNc1ncnc2c(F)ccc(F)c12)c1ccc(Oc2ncc(C(F)(F)F)cc2F)cc1 (stereo not shown) [Compound 145]					50 to 79%	0 to 49%
COc1ccc(C(C)CNc2ncnc3c(F)ccc(F)c23)cc1 (stereo not shown) [Compound 139]					0 to 49%	0 to 49%
CC(CNc1ncnc2c(F)ccc(F)c12)c1ccc(Oc2cc(C(F)(F)F)ccn2)cc1 (stereo not shown) [Compound 144]					80 to 100%	80 to 100%
COc1ccc(C(C)Nc2ncnc3c(F)ccc(F)c23)cc1 (stereo not shown) [Compound 120]		0 to 49%	80 to 100%			
CC(CNc1ncnc2c(F)ccc(F)c12)c1ccc(Oc2ccc(C(F)(F)F)cn2)cc1 (stereo not shown) [Compound 143]					80 to 100%	0 to 49%
Fc1ccc(F)c2c(NCCc3ccc(Oc4ccnc(C(F)(F)F)c4)cc3)ncnc12 [Compound 71]					80 to 100%	80 to 100%

Compound	pest or weed control at 200 ppm [1]	pest or weed control at 200 ppm [2]	pest or weed control at 200 ppm [3]	pest or weed control at 200 ppm [4]	pest or weed control at 25 ppm [2]	pest or weed control at 3 ppm [3]
COC(=O)c1cnc(Oc2ccc(CCNc3ncnc4c(F)ccc(F)c34)cc2C)cc1C(F)(F)F [Compound 36]			80 to 100%	80 to 100%	0 to 49%	
COc1cc(CCNc2ncnc3c(F)ccc(F)c23)ccc1Oc1cc(Cl)nc(C(F)(F)F)n1 [Compound 104]	80 to 100%	0 to 49%	80 to 100%			
CC(CNc1ncnc2c(F)ccc(F)c12)c1ccc(Oc2cc(C(F)(F)F)ncn2)cc1 (stereo not shown) [Compound 142]					80 to 100%	80 to 100%
Cc1ccnc(Oc2ccc(CCNc3ncnc4c(F)ccc(F)c34)cc2)c1 [Compound 128]					50 to 79%	80 to 100%
CC(Cc1ccc(Oc2ncc(C(F)(F)F)cc2F)cc1)Nc1ncnc2c(F)ccc(F)c12 (stereo not shown) [Compound 137]					80 to 100%	50 to 79%
CC(Cc1ccc(Oc2ccc(C(F)(F)F)cn2)cc1)Nc1ncnc2c(F)ccc(F)c12 (stereo not shown) [Compound 136]					80 to 100%	80 to 100%
Cc1cc(CCNc2ncnc3c(F)ccc(F)c23)ccc1Oc1nc(C(F)(F)F)nc(F)c1F [Compound 102]	80 to 100%	0 to 49%	80 to 100%			
Oc1cccc(CCNc2ncnc3c(F)ccc(F)c23)c1 [Compound 35]			50 to 79%	80 to 100%		
Fc1ccc(F)c2c(NCCc3ccc(Oc4ncccc4C(F)(F)F)cc3)ncnc12 [Compound 13]					80 to 100%	80 to 100%
Cc1cc(C(F)(F)F)cc(Oc2cc(C)c(CCNc3ncnc4c(F)ccc(F)c34)cc2C)n1 [Compound 22]	50 to 79%		80 to 100%		80 to 100%	
CC(Cc1ccc(Oc2cnccc2C(F)(F)F)cc1)Nc1ncnc2c(F)ccc(F)c12 (stereo not shown) [Compound 138]					80 to 100%	80 to 100%
Fc1ccc(F)c2c(NCCc3ccc(Oc4cncc(C(F)(F)F)c4)cc3)ncnc12 [Compound 123]					80 to 100%	80 to 100%
Fc1ccc(F)c2c(NCCc3ccc(Oc4cc(C(F)(F)F)ncn4)cc3)ncnc12 [Compound 109]	80 to 100%	80 to 100%	80 to 100%			
Fc1cc(F)c2ncnc(NCCc3ccc(Oc4cc(C(F)(F)F)ccn4)c(Cl)c3)c2c1F [Compound 92]	80 to 100%	50 to 79%	50 to 79%			
Oc1ccc(CCNc2ncnc3c(F)ccc(F)c23)cc1Br [Compound 38]	0 to 49%		0 to 49%	0 to 49%		
Fc1ccc(F)c2c(NCCc3ccc(Oc4cc(Cl)nc(C(F)(F)F)n4)cc3)ncnc12 [Compound 103]	80 to 100%	0 to 49%	80 to 100%			
Fc1ccc(F)c2c(OCCc3ccc(OCC(F)(F)F)cc3)ncnc12 [Compound 121]					50 to 79%	0 to 49%
COc1ccc2c(c1)CC(Nc1ncnc3c(F)ccc(F)c13)C2 (stereo not shown) [Compound 105]	80 to 100%	0 to 49%	80 to 100%			
